In ChEMBL document CHEMBL1909046, “DrugMatrix in vitro pharmacology data”:

Assays:
[1] = molecular target: Vasopressin V1a receptor (Homo sapiens, UniProt P37288); format: cell membranes, Membrane; details: hek293
[2] = molecular target: T1, C-C chemokine receptor type 4 (Homo sapiens, UniProt P51679); format: cell membranes, Chem-1, Membrane; details: chem-1
T1 sequence (P51679 whole entry): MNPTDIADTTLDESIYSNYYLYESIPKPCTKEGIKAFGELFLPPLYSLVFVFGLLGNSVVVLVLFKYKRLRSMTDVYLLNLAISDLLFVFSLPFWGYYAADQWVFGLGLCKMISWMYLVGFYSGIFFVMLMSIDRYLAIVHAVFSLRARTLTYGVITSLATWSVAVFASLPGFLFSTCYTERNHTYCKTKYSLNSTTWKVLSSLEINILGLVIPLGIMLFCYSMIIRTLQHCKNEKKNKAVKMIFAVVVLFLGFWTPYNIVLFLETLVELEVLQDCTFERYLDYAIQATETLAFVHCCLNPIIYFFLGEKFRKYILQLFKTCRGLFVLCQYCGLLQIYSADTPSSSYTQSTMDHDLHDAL

[3] = molecular target: T2, Angiotensin-converting enzyme (Oryctolagus cuniculus, UniProt P12822); assay: biochemical; format: tissue-based, Lung;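 also: enzymatic inhibition of angiotensin-converting enzyme measured with FAPGG as the substrate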
T2 sequence (P12822 whole entry): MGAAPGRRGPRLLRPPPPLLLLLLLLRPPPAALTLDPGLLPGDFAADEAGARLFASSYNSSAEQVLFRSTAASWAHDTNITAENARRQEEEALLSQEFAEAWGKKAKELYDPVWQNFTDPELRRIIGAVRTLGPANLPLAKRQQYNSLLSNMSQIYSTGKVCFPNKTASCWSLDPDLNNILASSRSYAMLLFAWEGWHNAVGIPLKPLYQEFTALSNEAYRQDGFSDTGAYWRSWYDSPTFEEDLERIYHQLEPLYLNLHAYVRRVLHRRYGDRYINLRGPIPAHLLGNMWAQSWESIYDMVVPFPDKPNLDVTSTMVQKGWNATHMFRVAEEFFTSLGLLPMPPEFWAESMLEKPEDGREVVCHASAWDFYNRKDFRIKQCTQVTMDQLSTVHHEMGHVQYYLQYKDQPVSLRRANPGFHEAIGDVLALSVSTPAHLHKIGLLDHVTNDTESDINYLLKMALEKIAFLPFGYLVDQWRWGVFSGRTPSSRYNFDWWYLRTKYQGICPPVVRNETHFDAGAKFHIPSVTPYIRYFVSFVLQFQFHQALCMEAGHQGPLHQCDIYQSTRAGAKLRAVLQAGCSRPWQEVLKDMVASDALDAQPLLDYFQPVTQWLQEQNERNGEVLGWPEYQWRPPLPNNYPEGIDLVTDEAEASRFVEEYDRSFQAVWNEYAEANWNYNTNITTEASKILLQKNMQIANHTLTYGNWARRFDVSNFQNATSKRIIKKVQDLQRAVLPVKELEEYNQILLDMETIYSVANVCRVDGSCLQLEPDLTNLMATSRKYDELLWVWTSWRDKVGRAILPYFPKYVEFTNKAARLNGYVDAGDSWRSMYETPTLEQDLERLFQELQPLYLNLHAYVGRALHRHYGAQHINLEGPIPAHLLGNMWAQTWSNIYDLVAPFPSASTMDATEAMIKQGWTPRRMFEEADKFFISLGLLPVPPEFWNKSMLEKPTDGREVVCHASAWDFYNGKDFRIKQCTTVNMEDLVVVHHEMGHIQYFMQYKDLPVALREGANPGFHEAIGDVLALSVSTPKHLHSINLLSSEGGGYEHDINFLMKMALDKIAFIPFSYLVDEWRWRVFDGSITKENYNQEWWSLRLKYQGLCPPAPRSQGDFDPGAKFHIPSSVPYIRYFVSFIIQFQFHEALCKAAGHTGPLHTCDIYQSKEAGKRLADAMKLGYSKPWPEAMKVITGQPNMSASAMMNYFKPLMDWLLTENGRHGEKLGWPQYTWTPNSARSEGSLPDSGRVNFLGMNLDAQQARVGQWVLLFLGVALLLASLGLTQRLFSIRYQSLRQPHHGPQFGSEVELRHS

[4] = molecular target: T3, Neuropeptide Y receptor type 2 (Homo sapiens, UniProt P49146); format: cell membranes, Membrane; details: kan-ts
T3 sequence (P49146 whole entry): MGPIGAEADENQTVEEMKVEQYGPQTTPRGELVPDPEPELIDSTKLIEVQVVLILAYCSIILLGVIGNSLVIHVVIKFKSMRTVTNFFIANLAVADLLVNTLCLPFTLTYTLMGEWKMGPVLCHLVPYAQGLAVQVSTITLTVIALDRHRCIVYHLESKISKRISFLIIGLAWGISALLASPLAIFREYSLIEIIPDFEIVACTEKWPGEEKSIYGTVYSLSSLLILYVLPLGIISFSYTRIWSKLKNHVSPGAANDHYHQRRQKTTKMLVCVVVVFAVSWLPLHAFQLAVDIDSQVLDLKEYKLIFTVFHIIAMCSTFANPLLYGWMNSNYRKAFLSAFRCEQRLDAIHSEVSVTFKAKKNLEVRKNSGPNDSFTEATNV

[5] = molecular target: T4, Neuropeptide Y receptor type 1 (Homo sapiens, UniProt P25929); format: cell membranes, Membrane; details: sk-n-mc
T4 sequence (P25929 whole entry): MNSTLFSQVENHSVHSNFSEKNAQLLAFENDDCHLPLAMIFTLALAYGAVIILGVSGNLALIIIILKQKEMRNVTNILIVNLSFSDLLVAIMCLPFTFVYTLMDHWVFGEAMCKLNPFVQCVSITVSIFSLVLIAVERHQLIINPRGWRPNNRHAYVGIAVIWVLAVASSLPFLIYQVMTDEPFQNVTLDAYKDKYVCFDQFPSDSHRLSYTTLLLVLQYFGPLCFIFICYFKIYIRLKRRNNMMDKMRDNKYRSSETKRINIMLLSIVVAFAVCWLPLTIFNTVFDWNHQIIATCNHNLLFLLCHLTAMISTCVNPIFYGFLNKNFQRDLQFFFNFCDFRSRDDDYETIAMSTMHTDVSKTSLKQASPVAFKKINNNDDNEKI

[6] = molecular target: T5, Calcitonin receptor (Homo sapiens, UniProt P30988); format: cell membranes, Membrane; details: t47d
T5 sequence (P30988 whole entry): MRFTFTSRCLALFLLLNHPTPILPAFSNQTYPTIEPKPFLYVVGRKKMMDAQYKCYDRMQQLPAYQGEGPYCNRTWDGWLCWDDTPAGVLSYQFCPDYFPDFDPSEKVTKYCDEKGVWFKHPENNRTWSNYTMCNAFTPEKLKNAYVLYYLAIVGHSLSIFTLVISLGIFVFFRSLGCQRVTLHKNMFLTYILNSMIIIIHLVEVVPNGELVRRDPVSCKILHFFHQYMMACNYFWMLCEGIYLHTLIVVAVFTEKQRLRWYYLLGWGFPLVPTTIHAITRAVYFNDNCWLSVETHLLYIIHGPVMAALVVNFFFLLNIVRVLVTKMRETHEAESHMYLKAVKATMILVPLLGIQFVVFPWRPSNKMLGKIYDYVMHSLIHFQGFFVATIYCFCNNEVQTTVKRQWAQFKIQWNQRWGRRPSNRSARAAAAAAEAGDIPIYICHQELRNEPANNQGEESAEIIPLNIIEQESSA

Measured: IC50
Also: in other assays of this panel Not Active means under 50% inhibition at 10 µM.

Chain of Vasopressin V1a receptor (P37288 whole entry): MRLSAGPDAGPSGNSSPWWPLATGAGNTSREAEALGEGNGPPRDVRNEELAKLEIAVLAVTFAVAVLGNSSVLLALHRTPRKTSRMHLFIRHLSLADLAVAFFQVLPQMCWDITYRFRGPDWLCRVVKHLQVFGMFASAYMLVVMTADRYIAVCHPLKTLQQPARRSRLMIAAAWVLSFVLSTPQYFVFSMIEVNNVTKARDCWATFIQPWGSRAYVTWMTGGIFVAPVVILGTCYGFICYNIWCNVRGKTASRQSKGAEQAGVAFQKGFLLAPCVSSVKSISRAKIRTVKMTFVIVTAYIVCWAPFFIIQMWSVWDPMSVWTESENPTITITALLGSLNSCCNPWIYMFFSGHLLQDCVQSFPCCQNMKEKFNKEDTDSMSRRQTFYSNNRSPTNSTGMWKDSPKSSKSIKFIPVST

CC(=O)O[C@]1(C(C)=O)CC[C@H]2[C@@H]3C[C@H](C)C4=CC(=O)CC[C@]4(C)[C@H]3CC[C@@]21C [MEDROXYPROGESTERONE ACETATE]
Not Active: all assays above

CCN1CCCC1CNC(=O)c1cc(S(N)(=O)=O)ccc1OC (configuration not stated) [SULPIRIDE]
Not Active: all assays above

CN1C[C@H](CNC(=O)OCc2ccccc2)C[C@@H]2c3cccc4c3c(cn4C)C[C@H]21 [METERGOLINE]
Not Active: all assays above

CC(Cl)(Cl)Cl [TRICHLOROETHANE]
Not Active: all assays above

CC1=C(/C=C/C(C)=C/C=C/C(C)=C/C(=O)O)C(C)(C)CCC1 [TRETINOIN]
Not Active: all assays above

C=CCc1ccc2c(c1)OCO2 [SAFROLE]
Not Active: all assays above

C1CCN2C[C@@H]3C[C@@H](CN4CCCC[C@@H]34)[C@H]2C1 [SPARTEINE]
Not Active: all assays above
